{"source": "paper PMC6585941", "about": "(SLAS discovery : advancing life sciences R & D, 2018)", "key": {"purified recombinant IDE": {"tested_on": "purified recombinant IDE", "conditions": "same form of purified recombinant IDE; cited from earlier work"}, "Recombinant human IDE": {"molecular_target": "T1, Recombinant human IDE (Homo sapiens, UniProt P14735)", "T1 sequence (P14735 1-1019)": "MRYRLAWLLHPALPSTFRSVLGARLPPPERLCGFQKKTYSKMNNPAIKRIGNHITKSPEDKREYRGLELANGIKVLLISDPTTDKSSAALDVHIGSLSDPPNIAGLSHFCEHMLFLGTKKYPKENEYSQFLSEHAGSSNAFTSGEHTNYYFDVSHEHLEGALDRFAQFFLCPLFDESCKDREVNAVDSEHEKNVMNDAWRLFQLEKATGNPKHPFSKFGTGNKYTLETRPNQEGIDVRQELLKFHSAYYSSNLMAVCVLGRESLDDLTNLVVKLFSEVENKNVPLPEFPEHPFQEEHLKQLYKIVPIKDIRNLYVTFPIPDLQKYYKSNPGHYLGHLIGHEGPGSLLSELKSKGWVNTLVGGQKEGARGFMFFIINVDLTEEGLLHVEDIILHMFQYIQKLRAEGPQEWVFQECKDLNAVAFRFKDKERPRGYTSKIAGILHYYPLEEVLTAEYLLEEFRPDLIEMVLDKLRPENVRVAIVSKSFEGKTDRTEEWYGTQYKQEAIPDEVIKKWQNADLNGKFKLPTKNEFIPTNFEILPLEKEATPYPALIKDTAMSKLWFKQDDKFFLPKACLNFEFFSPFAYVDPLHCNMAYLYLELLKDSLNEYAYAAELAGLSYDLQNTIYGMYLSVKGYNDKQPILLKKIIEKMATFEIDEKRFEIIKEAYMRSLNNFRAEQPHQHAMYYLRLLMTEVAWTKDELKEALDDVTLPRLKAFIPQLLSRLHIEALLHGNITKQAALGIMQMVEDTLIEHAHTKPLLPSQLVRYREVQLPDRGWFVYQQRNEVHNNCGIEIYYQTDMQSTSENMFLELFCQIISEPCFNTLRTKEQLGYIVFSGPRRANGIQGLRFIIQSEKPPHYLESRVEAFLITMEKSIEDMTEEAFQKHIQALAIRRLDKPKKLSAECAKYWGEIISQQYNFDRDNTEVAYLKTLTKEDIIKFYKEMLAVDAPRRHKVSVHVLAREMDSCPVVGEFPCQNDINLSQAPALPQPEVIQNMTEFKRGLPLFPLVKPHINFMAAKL", "assay": "Fluorescence polarization", "type": "biochemical"}, "[1]": {"tested_on": "semi-purified protease purified from rat liver, inferred to be IDE", "conditions": "protease purified by affinity chromatography from rat liver; cited from earlier work"}, "[2]": {"conditions": "ML345 50 nM, FP-based assay, mean ± SD of 3 independent runs"}}, "data": [{"compound": "insulin", "values": [{"measurement": "kcat of degradation by IDE", "setting": "purified recombinant IDE", "result": 0.025, "unit": "s⁻¹"}]}, {"compound": "O=c1c2cc(F)ccc2sn1-c1cc(S(=O)(=O)N2CCOCC2)ccc1N1CCOCC1", "note": "[ML345]", "values": [{"measurement": "KM^app of FBG degradation in presence of inhibitor", "setting": "Recombinant human IDE; [2]", "result": "0.392 ± 0.073", "unit": "µM"}, {"measurement": "vmax^app of FBG degradation in presence of inhibitor", "setting": "Recombinant human IDE; [2]", "result": "0.827 ± 0.032", "unit": "nM/s"}, {"measurement": "mechanism of inhibition of IDE", "setting": "Recombinant human IDE; kinetics analyses, Lineweaver-Burk plots, P12–3A 5 µM or ML345 50 nM", "result": "irreversible"}]}, {"compound": "bacitracin", "values": [{"measurement": "inhibition of the purified protease", "setting": "[1]", "result": "susceptible to inhibition"}]}]}
